Reference: US7906655B2, “Hepatitis C virus inhibitors” (Bristol-Myers Squibb Company, priority 2008, dated 2011)

Tested on: HCV 1b genotype
Assay: HCV Replicon assay (HCV-neo replicon cells, wild-type)
Format: cell-based
Conditions: HCV 1b genotype replicon
How it was run: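 Assay used wild-type HCV genotype 1b replicon cells carrying neo, with luciferase reporter read-outs in some formats.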

[1] = Hepatitis C virus, class symbols
[2] = Hepatitis C virus, numeric values

`CN1CCN([C@@H](C(=O)N2CCC[C@H]2c2nc3cc(-c4cnc(-c5cccc6[nH]c([C@@H]7CCCN7C(=O)[C@@H](c7ccccc7)N7CCN(C)CC7)nc56)o4)ccc3[nH]2)c2ccccc2)CC1` [Example J14, 2-((2S)-1-((2R)-2-(4-methyl-1-piperazinyl)-2-phenylacetyl)-2-pyrrolidinyl)-4-(5-(2-((2S)-1-((2R)-2-(4-methyl-1-piperazinyl)-2-phenylacetyl)-2-pyrrolidinyl)-1H-benzimidazol-5-yl)-1,3-oxazol-2-yl)-1H-benzimidazole] was tested, and the EC50 [1] was less than 4.57 nM.

Work on `CC[C@H](NC(=O)OCc1ccccc1)c1nc2cc(CCc3ccc4nc([C@H](CC)NC(=O)OCc5ccccc5)[nH]c4c3)ccc2[nH]1` [OL7, benzyl ((1S)-1-(5-(2-(2-((1S)-1-(((benzyloxy)carbonyl)amino)propyl)-1H-benzimidazol-6-yl)ethyl)-1H-benzimidazol-2-yl)propyl)carbamate] yielded an EC50 [1] of 4.57 to 99 nM.

`O=C([C@H](O)c1ccccc1)N1CCC[C@H]1c1nc2cc(-c3cnc(-c4cccc5[nH]c([C@@H]6CCCN6C(=O)[C@H](O)c6ccccc6)nc45)o3)ccc2[nH]1` [Example J9, (1R)-2-((2S)-2-(4-(5-(2-((2S)-1-((2R)-2-hydroxy-2-phenylacetyl)-2-pyrrolidinyl)-1H-benzimidazol-5-yl)-1,3-oxazol-2-yl)-1H-benzimidazol-2-yl)-1-pyrrolidinyl)-2-oxo-1-phenylethanol] was tested, and the EC50 [1] was 4.57 to 99 nM.

With `COC(=O)N[C@@H](C(=O)N[C@@H](C)c1nc2cc(C#Cc3ccc4[nH]c([C@H](C)NC(=O)[C@H](NC(=O)OC)c5ccccc5)nc4c3)ccc2[nH]1)c1ccccc1` [Example M31, dimethyl (1,2-ethynediylbis(1H-benzimidazole-5,2-diyl(1S)-1,1-ethanediylimino((1R)-2-oxo-1-phenyl-2,1-ethanediyl)))biscarbamate] the EC50 [2] was 0.033 nM.

`COC(=O)NC(C(=O)N1[C@@H]2C[C@@H]2C[C@H]1c1nc2cc(Oc3cccc(-c4ccc5[nH]c([C@@H]6C[C@H]7C[C@H]7N6C(=O)C(NC(=O)OC)c6ccccc6)nc5c4)c3)ccc2[nH]1)c1ccccc1` (stereo partly drawn) [Example V4, methyl (2-((1R,3S,5R)-3-(5-(3-((2-((1R,3S,5R)-2-(((methoxycarbonyl)amino)(phenyl)acetyl)-2-azabicyclo[3.1.0]hex-3-yl)-1H-benzimidazol-5-yl)oxy)phenyl)-1H-benzimidazol-2-yl)-2-azabicyclo[3.1.0]hex-2-yl)-2-oxo-1-phenylethyl) carbamate] gave an EC50 (class symbols) of less than 4.57 nM.

`O=C(c1ccco1)N1CCC[C@H]1c1nc2ccc(C#Cc3ccc4[nH]c([C@@H]5CCCN5C(=O)[C@H]5CCCO5)nc4c3)cc2[nH]1` [Example M51, 5-((2-((2S)-1-(2-furoyl)-2-pyrrolidinyl)-1H-benzimidazol-6-yl)ethynyl)-2-((2S)-1-((2R)-tetrahydro-2-furanylcarbonyl)-2-pyrrolidinyl)-1H-benzimidazole] gave an EC50 [1] of less than 4.57 nM.

With `CC(=O)N1CCC[C@H]1c1nc2ccc(C#Cc3ccc4[nH]c([C@@H]5CCCN5C(=O)Cc5cccnc5)nc4c3)cc2[nH]1` [Example M54.21, 5-((2-((2S)-1-acetyl-2-pyrrolidinyl)-1H-benzimidazol-6-yl)ethynyl)-2-((2S)-1-(3-pyridinylacetyl)-2-pyrrolidinyl)-1H-benzimidazole] the EC50 [1] was 4.57 to 99 nM.

For `C[C@@](O)(C(=O)N1CCC[C@H]1c1nc2cc(C#Cc3ccc4[nH]c([C@@H]5CCCN5C(=O)[C@@](C)(O)c5ccccc5)nc4c3)ccc2[nH]1)c1ccccc1` [Example M16], the EC50 (class symbols) was less than 4.57 nM.

`CC(=O)N1CCC[C@H]1c1nc2ccc(C#Cc3ccc4[nH]c([C@@H]5CCCN5C(=O)CC5CC5)nc4c3)cc2[nH]1` [Example M54.32, 5-((2-((2S)-1-acetyl-2-pyrrolidinyl)-1H-benzimidazol-6-yl)ethynyl)-2-((2S)-1-(cyclopropyl-acetyl)-2-pyrrolidinyl)-1H-benzimidazole] showed an EC50 [1] of 4.57 to 99 nM.

`Cn1cccc1C(=O)N1CCC[C@H]1c1nc2cc(C#Cc3ccc4[nH]c([C@@H]5CCCN5C(=O)c5cccn5C)nc4c3)ccc2[nH]1` [Example M12, 5,5′-(1,2-ethynediyl)bis(2-((2S)-1-((1-methyl-1H-pyrrol-2-yl)carbonyl)-2-pyrrolidinyl)-1H-benzimidazole)] gave an EC50 [1] of 4.57 to 99 nM.

Molecule `CCCO[C@@H]1C[C@@H](c2nc3cc(CCc4ccc5nc([C@@H]6C[C@@H](OCCC)CN6C(=O)OCc6ccccc6)[nH]c5c4)ccc3[nH]2)N(C(=O)OCc2ccccc2)C1` [Example F6, benzyl (2S,4R)-2-(5-(2-(2-((2S,4R)-1-((benzyloxy)carbonyl)-4-propoxy-2-pyrrolidinyl)-1H-benzimidazol-6-yl)ethyl)-1H-benzimidazol-2-yl)-4-propoxy-1-pyrrolidinecarboxylate] has an EC50 [2] of 480 nM.

`COC(=O)N[C@@H](C(=O)N1CCC[C@H]1c1nc2cc(C#Cc3ccc4[nH]c([C@@H]5CCCN5C(=O)[C@H](NC(=O)OC)c5ccccc5)nc4c3)ccc2[nH]1)c1ccccc1` [Example M23, dimethyl (1,2-ethynediylbis(1H-benzimidazole-5,2-diyl(2S)-2,1-pyrrolidinediyl((1R)-2-oxo-1-phenyl-2,1-ethanediyl)))biscarbamate] gave an EC50 [1] of less than 4.57 nM.

`CN(C)C(=O)C[C@H](NC(=O)OCc1ccccc1)c1nc2cc(CCc3ccc4[nH]c([C@H](CC(=O)N(C)C)NC(=O)OCc5ccccc5)nc4c3)ccc2[nH]1` [OL14, benzyl((1S)-1-(5-(2-(2-((1S)-1-(((benzyloxy)carbonyl)amino)-3-(dimethylamino)-3-oxopropyl)-1H-benzimidazol-6-yl)ethyl)-1H-benzimidazol-2-yl)-3-(dimethylamino)-3-oxopropyl)carbamate] showed an EC50 [1] of 100 to 999 nM.

`COc1cccc2c(C(=O)N3CCC[C@H]3c3nc4cc(C#Cc5ccc6nc([C@@H]7CCCN7C(=O)c7nc(Cl)cc8c(OC)cccc78)[nH]c6c5)ccc4[nH]3)nc(Cl)cc12` [Example M18, 3-chloro-1-(((2S)-2-(5-((2-((2S)-1-((3-chloro-5-methoxy-1-isoquinolinyl)carbonyl)-2-pyrrolidinyl)-1H-benzimidazol-6-yl)ethynyl)-1H-benzimidazol-2-yl)-1-pyrrolidinyl)carbonyl)-5-methoxyisoquinoline] gave an EC50 [1] of 100 to 999 nM.

In the case of `O=C1CC[C@@H](c2nc3cc(CCc4ccc5nc([C@@H]6CCC(=O)N6C(=O)OCc6ccccc6)[nH]c5c4)ccc3[nH]2)N1C(=O)OCc1ccccc1` [OL3, benzyl (2S)-2-(5-(2-(2-((2S)-1-(((benzyloxy)carbonyl)-5-oxo-2-pyrrolidinyl)-1H-benzimidazol-6-yl)ethyl)-1H-benzimidazol-2-yl)-5-oxo-1-pyrrolidinecarboxylate], the EC50 (class symbols) is reported as 100 to 999 nM.

With `CC(=O)N[C@@H](C(=O)N1CCC[C@H]1c1nc2cc(-c3cnc(-c4cccc5[nH]c([C@@H]6CCCN6C(=O)[C@H](NC(C)=O)c6ccccc6)nc45)o3)ccc2[nH]1)c1ccccc1` [Example J12, N-((1R)-2-((2S)-2-(4-(5-(2-((2S)-1-((2R)-2-acetamido-2-phenylacetyl)-2-pyrrolidinyl)-1H-benzimidazol-5-yl)-1,3-oxazol-2-yl)-1H-benzimidazol-2-yl)-1-pyrrolidinyl)-2-oxo-1-phenylethyl) acetamide] the EC50 [1] was less than 4.57 nM.

With `O=C(CC1CC1)N1CCC[C@H]1c1nc2ccc(C#Cc3ccc4[nH]c([C@@H]5CCCN5C(=O)[C@H]5CCCO5)nc4c3)cc2[nH]1` [Example M52, 5-((2-((2S)-1-(cyclopropylacetyl)-2-pyrrolidinyl)-1H-benzimidazol-6-yl)ethynyl)-2-((2S)-1-((2R)-tetrahydro-2-furanylcarbonyl)-2-pyrrolidinyl)-1H-benzimidazole] the EC50 [1] was 4.57 to 99 nM.

`O=C(c1cccs1)N1CCC[C@H]1c1nc2cc(C#Cc3ccc4nc([C@@H]5CCCN5C(=O)[C@H]5CCCO5)[nH]c4c3)ccc2[nH]1` [Example M54.4, 5-((2-((2S)-1-((2R)-tetrahydro-2-furanylcarbonyl)-2-pyrrolidinyl)-1H-benzimidazol-6-yl)ethynyl)-2-((2S)-1-(2-thienylcarbonyl)-2-pyrrolidinyl)-1H-benzimidazole] showed an EC50 [1] of less than 4.57 nM.

`CC(=O)NC(C(=O)N1CCC[C@H]1c1nc2cc(-c3cnc(-c4cccc5[nH]c([C@@H]6CCCN6C(=O)C(NC(C)=O)c6ccccc6)nc45)o3)ccc2[nH]1)c1ccccc1` (mixture of isomers) [Example J12.1, N-((1R)-2-((2S)-2-(4-(5-(2-((2S)-1-((2R)-2-acetamido-2-phenylacetyl)-2-pyrrolidinyl)-1H-benzimidazol-5-yl)-1,3-oxazol-2-yl)-1H-benzimidazol-2-yl)-1-pyrrolidinyl)-2-oxo-1-phenylethyl) acetamide] gave an EC50 [1] of 4.57 to 99 nM.

With `C[C@H](NC(=O)[C@@H](c1ccccc1)N(C)C)c1nc2c(-c3ncc(-c4ccc5[nH]c([C@@H]6CCCN6C(=O)[C@@H](c6ccccc6)N(C)C)nc5c4)o3)cccc2[nH]1` [Example J26, (2R)-2-(dimethyl-amino)-N-((1S)-1-(4-(5-(2-((2S)-1-((2R)-2-(dimethyl-amino)-2-phenylacetyl)-2-pyrrolidinyl)-1H-benzimidazol-5-yl)-1,3-oxazol-2-yl)-1H-benzimidazol-2-yl)ethyl)-2-phenyl-acetamide] the EC50 [2] was 0.021 nM.

Molecule `CCO[C@@H]1C[C@@H](c2nc3cc(CCc4ccc5nc([C@@H]6C[C@@H](OCC)CN6C(=O)OCc6ccccc6)[nH]c5c4)ccc3[nH]2)N(C(=O)OCc2ccccc2)C1` [Example F5, benzyl (2S,4R)-2-(5-(2-(2-((2S,4R)-1-((benzyloxy)carbonyl)-4-ethoxy-2-pyrrolidinyl)-1H-benzimidazol-6-yl)ethyl)-1H-benzimidazol-2-yl)-4-ethoxy-1-pyrrolidinecarboxylate] has an EC50 [1] of 4.57 to 99 nM.

For `COC(=O)N[C@H](C(=O)N1[C@@H]2C[C@@H]2C[C@H]1c1nc2cc(C#CC#Cc3ccc4[nH]c([C@@H]5C[C@H]6C[C@H]6N5C(=O)[C@@H](NC(=O)OC)C(C)C)nc4c3)ccc2[nH]1)C(C)C` [Example M57.2, Methyl((1S)-1-(((1R,3S,5R)-3-(5-(4-(2-((1R,3S,5R)-2-((2S)-2-((methoxycarbonyl)amino)-3-methylbutanoyl)-2-azabicyclo[3.1.0]hex-3-yl)-1H-benzimidazol-5-yl)-1,3-butadiyn-1-yl)-1H-benzimidazol-2-yl)-2-azabicyclo[3.1.0]hex-2-yl)carbonyl)-2-methylpropyl)carbamate], the EC50 [1] was less than 4.57 nM.
